# Molecular target: T1, human OX2 receptor (Homo sapiens, UniProt O43614)
# T1 construct: expressed in transfected cells
# T1 sequence (O43614 1-444): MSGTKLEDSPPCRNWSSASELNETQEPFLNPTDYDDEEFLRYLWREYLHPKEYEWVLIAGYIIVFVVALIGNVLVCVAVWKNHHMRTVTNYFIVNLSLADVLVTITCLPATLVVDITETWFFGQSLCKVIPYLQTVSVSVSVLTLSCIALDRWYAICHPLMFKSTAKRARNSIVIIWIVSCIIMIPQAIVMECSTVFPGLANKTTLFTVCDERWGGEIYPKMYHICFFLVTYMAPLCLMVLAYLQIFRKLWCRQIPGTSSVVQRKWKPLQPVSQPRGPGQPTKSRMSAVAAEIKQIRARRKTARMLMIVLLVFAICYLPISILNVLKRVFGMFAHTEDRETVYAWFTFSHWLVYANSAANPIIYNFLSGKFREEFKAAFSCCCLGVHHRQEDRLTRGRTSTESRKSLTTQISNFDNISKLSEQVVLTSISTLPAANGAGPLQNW
# Experiment: Measurement of orexin type 2 receptor agonist activity (calcium fluorescence, Fluo-4, FDSS)
# Type: cell-based
# Conditions: 3 uM test compound; CHO cells expressing human OX2 receptor; DMSO = 0%, 10 nM orexin A (human) = 100%
# Procedure, shortened: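 Agonist activity (%) was normalised to the response to 10 nM final human orexin A (100%) and to the DMSO vehicle (0%). The response was measured as the Fluo-4 calcium signal, read kinetically over 1 min 40 s after compound addition to Fluo-4/probenecid-loaded stable CHO-K1 clones expressing human OX2 (aa 1-444).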
row,SMILES,"OX2R agonist activity (3 uM, %) [%]"
1,"CS(=O)(=O)N[C@@H]1Cn2c(cn(-c3noc4cc(OC(F)(F)F)cc(-c5c(F)cc(F)cc5F)c34)c2=O)C1(F)F [Example 176, N-{(6R)-7,7-difluoro-3-oxo-2-[6-(trifluoromethoxy)-4-(2,4,6-trifluorophenyl)-1,2-benzoxazol-3-yl]-2,5,6,7-tetrahydro-3H-pyrrolo[1,2-c]imidazol-6-yl}methanesulfonamide]",89
2,"CCS(=O)(=O)N[C@@H]1CN2C(=O)N(c3noc4cccc(-c5ccc(F)cc5Cl)c34)CC[C@@H]2C1(F)F [Example 329, N-{(4aR,6R)-2-[4-(2-chloro-4-fluorophenyl)-1,2-benzoxazol-3-yl]-5,5-difluoro-1-oxooctahydropyrrolo[1,2-c]pyrimidin-6-yl}ethanesulfonamide]",101
3,"CCS(=O)(=O)N[C@@H]1Cn2c(cn(-c3noc4nc(C)cc(-c5c(F)cccc5F)c34)c2=O)C1(F)F [Example 112, N-{(6R)-2-[4-(2,6-difluorophenyl)-6-methyl[1,2]oxazolo[5,4-b]pyridin-3-yl]-7,7-difluoro-3-oxo-2,5,6,7-tetrahydro-3H-pyrrolo[1,2-c]imidazol-6-yl}ethanesulfonamide]",99
4,"CS(=O)(=O)N[C@@H]1CN2C(=O)N(c3noc4ccc(F)c(-c5c(F)cccc5F)c34)C[C@@H]2C1(F)F [Example 38, N-{(6R,7aR)-2-[4-(2,6-difluorophenyl)-5-fluoro-1,2-benzoxazol-3-yl]-7,7-difluoro-3-oxohexahydro-1H-pyrrolo[1,2-c]imidazol-6-yl}methanesulfonamide]",111
5,"CCS(=O)(=O)NC1Cn2cc(-c3noc4cccc(-c5c(F)cccc5F)c34)c(=O)n2C1 (single isomer, unassigned) [Example 339, N-{(2R*)-6-[4-(2,6-difluorophenyl)-1,2-benzoxazol-3-yl]-5-oxo-2,3-dihydro-1H,5H-pyrazolo[1,2-a]pyrazol-2-yl}ethanesulfonamide]",96
6,"CCS(=O)(=O)N[C@@H]1CN2C(=O)N(c3noc4cccc(-c5ncc(F)cc5F)c34)CC[C@@H]2C1(F)F [Example 321, N-{(4aR,6R)-2-[4-(3,5-difluoropyridin-2-yl)-1,2-benzoxazol-3-yl]-5,5-difluoro-1-oxooctahydropyrrolo[1,2-c]pyrimidin-6-yl}ethanesulfonamide]",108
7,"COc1cc(-c2c(F)cc(F)cc2F)c2c(-n3cc4n(c3=O)C[C@@H](NS(C)(=O)=O)C4(F)F)noc2n1 [Example 250, N-{(6R)-7,7-difluoro-2-[6-methoxy-4-(2,4,6-trifluorophenyl)[1,2]oxazolo[5,4-b]pyridin-3-yl]-3-oxo-2,5,6,7-tetrahydro-3H-pyrrolo[1,2-c]imidazol-6-yl}methanesulfonamide]",99
8,"CCS(=O)(=O)N[C@@H]1CN2C(=O)N(c3noc4cccc(C5CCC5)c34)CC[C@@H]2C1(F)F [Example 331, N-[(4aR,6R)-2-(4-cyclobutyl-1,2-benzoxazol-3-yl)-5,5-difluoro-1-oxooctahydropyrrolo[1,2-c]pyrimidin-6-yl]ethanesulfonamide]",45
9,"CS(=O)(=O)N[C@@H]1CN2C(=O)N(c3noc4cccc(-c5ccccc5F)c34)CC[C@@H]2C1(F)F [Example 273, N-{(4aR,6R)-5,5-difluoro-2-[4-(2-fluorophenyl)-1,2-benzoxazol-3-yl]-1-oxooctahydropyrrolo[1,2-c]pyrimidin-6-yl}methanesulfonamide]",103

# The next lines start with the values.
row,"OX2R agonist activity (3 uM, %) [%]",SMILES
1,109,"CS(=O)(=O)N[C@@H]1CN2C(=O)N(c3noc4cc(Br)cc(-c5c(F)cccc5F)c34)CC[C@@H]2C1(F)F [Example 224, N-{(4aR,6R)-2-[6-bromo-4-(2,6-difluorophenyl)-1,2-benzoxazol-3-yl]-5,5-difluoro-1-oxooctahydropyrrolo[1,2-c]pyrimidin-6-yl}methanesulfonamide]"
2,96,"CCS(=O)(=O)N[C@@H]1CN2C(=O)N(c3noc4cccc(-c5c(F)cccc5F)c34)C[C@@H]2C1(C)C [Example 6, N-{(6S,7aS)-2-[4-(2,6-difluorophenyl)-1,2-benzoxazol-3-yl]-7,7-dimethyl-3-oxohexahydro-1H-pyrrolo[1,2-c]imidazol-6-yl}ethanesulfonamide]"
3,97,"CCS(=O)(=O)N[C@H]1C[C@H]2CN(c3noc4ccc(F)c(-c5c(F)cccc5F)c34)C(=O)N2C1 [Example 66, N-{(6S,7aS)-2-[4-(2,6-difluorophenyl)-5-fluoro-1,2-benzoxazol-3-yl]-3-oxohexahydro-1H-pyrrolo[1,2-c]imidazol-6-yl}ethanesulfonamide]"
4,96,"CS(=O)(=O)N[C@@H]1CN2C(=O)N(c3noc4cc(Cl)cc(-c5c(F)cccc5F)c34)CC[C@@H]2C1(F)F [Example 259, N-{(4aR,6R)-2-[6-chloro-4-(2,6-difluorophenyl)-1,2-benzoxazol-3-yl]-5,5-difluoro-1-oxooctahydropyrrolo[1,2-c]pyrimidin-6-yl}methanesulfonamide]"
5,100,"CCS(=O)(=O)N[C@H]1C[C@H]2CN(c3noc4cc(OC)cc(-c5c(F)cccc5F)c34)C(=O)N2C1 [Example 41, N-{(6S,7aS)-2-[4-(2,6-difluorophenyl)-6-methoxy-1,2-benzoxazol-3-yl]-3-oxohexahydro-1H-pyrrolo[1,2-c]imidazol-6-yl}ethanesulfonamide]"
6,92,"CCS(=O)(=O)N[C@@H]1CN2C(=O)N(c3noc4cc(Cl)cc(-c5c(F)cc(F)cc5F)c34)C[C@@H]2C1(F)F [Example 9, N-{(6R,7aR)-2-[6-chloro-4-(2,4,6-trifluorophenyl)-1,2-benzoxazol-3-yl]-7,7-difluoro-3-oxohexahydro-1H-pyrrolo[1,2-c]imidazol-6-yl}ethanesulfonamide]"
7,101,"Cc1cc2onc(N3C[C@H]4N(C[C@@H](NS(C)(=O)=O)C4(F)F)C3=O)c2c(-c2c(F)cccc2F)c1F [Example 186, N-{(6R,7aR)-2-[4-(2,6-difluorophenyl)-5-fluoro-6-methyl-1,2-benzoxazol-3-yl]-7,7-difluoro-3-oxohexahydro-1H-pyrrolo[1,2-c]imidazol-6-yl}methanesulfonamide]"
8,94,"CCS(=O)(=O)N[C@H]1C[C@H]2CN(c3noc4c(C)ccc(-c5c(F)cccc5F)c34)C(=O)N2C1 [Example 30, N-{(6S,7aS)-2-[4-(2,6-difluorophenyl)-7-methyl-1,2-benzoxazol-3-yl]-3-oxohexahydro-1H-pyrrolo[1,2-c]imidazol-6-yl}ethanesulfonamide]"
9,99,"CCS(=O)(=O)N[C@H]1C[C@H]2CN(c3noc4cc(C5CC5)cc(-c5c(F)cccc5F)c34)C(=O)N2C1 [Example 56, N-{(6S,7aS)-2-[6-cyclopropyl-4-(2,6-difluorophenyl)-1,2-benzoxazol-3-yl]-3-oxohexahydro-1H-pyrrolo[1,2-c]imidazol-6-yl}ethanesulfonamide]"
10,98,"CCS(=O)(=O)NC1Cn2c(C)c(-c3noc4cccc(-c5c(F)cccc5F)c34)c(=O)n2C1 (single isomer, unassigned) [Example 336, N-{(2R*)-6-[4-(2,6-difluorophenyl)-1,2-benzoxazol-3-yl]-7-methyl-5-oxo-2,3-dihydro-1H,5H-pyrazolo[1,2-a]pyrazol-2-yl}ethanesulfonamide]"
